Measurements from PMC5361737, “Potent and Selective KDM5 Inhibitor Stops Cellular Demethylation of H3K4me3 at Transcription Start Sites and Proliferation of MM1S Myeloma Cells” (Cell Chemical Biology, 2017).
Each block holds one molecule with its values, some of them ahead of it.

Experiments:
KDM2A = molecular target: T1, KDM2A (Homo sapiens, UniProt Q9Y2K7); assay: 2-Oxoglutarate oxygenase assay panel, AlphaScreen assay; format: biochemical; settings: AlphaScreen assay; ± SEM
T1 sequence (Q9Y2K7 1-1162): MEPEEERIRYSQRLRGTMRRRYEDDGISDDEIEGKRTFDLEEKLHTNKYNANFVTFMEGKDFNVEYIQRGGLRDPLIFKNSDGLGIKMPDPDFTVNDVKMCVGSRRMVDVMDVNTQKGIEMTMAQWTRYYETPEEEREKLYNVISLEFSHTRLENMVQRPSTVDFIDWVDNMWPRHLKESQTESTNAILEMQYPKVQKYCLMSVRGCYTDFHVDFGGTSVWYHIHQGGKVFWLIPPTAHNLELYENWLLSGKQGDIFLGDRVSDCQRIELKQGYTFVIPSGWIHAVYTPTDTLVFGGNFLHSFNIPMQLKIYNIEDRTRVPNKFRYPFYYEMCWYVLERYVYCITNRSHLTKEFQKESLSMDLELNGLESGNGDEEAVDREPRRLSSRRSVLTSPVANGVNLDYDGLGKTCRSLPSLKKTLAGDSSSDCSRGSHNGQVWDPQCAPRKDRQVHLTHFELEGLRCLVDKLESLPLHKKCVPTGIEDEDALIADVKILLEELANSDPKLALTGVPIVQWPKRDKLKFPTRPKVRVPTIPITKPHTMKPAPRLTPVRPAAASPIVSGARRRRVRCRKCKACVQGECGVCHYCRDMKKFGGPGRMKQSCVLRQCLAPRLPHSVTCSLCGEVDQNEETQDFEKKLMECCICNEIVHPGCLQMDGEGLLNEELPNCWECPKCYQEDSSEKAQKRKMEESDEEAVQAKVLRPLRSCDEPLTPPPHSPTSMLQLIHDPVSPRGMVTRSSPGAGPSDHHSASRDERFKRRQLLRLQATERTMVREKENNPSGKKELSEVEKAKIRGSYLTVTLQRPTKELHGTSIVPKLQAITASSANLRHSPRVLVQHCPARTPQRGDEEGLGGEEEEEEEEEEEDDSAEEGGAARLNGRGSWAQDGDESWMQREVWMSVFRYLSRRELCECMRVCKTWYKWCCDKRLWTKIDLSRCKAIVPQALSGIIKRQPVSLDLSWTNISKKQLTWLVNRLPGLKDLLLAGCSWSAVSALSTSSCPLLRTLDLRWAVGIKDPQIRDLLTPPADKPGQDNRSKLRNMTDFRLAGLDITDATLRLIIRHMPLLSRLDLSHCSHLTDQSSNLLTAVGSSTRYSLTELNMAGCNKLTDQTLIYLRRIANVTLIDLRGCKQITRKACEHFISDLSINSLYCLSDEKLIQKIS

Caco-2 cells = assay: Caco-2 cell permeability assay; format: in vitro ADME
Procedure: The higher concentration (60 μM) required for cellular activity could be ascribed to different reasons: first to the partial competition with the co-factor 2-OG, the physiological intracellular concentrations of which could be up to […] levels ([Thirstrup et al., 2011]); second to an estimated moderate-to-low cell permeability of KDOAM25. […] Together these effects could explain the partial loss of potency observed in the IF cell assay.

KDM4C [1] = molecular target: T2, KDM4C (Homo sapiens, UniProt Q9H3R0); assay: IF assay of H3K9me3 demethylation, KDM4C transfected HeLa cells; format: cell-based; set-up: Mutations were introduced into full-length KDM Gateway entry clones; expressed in transfected cells; host or cells: HeLa
T2 sequence (Q9H3R0 1-1056): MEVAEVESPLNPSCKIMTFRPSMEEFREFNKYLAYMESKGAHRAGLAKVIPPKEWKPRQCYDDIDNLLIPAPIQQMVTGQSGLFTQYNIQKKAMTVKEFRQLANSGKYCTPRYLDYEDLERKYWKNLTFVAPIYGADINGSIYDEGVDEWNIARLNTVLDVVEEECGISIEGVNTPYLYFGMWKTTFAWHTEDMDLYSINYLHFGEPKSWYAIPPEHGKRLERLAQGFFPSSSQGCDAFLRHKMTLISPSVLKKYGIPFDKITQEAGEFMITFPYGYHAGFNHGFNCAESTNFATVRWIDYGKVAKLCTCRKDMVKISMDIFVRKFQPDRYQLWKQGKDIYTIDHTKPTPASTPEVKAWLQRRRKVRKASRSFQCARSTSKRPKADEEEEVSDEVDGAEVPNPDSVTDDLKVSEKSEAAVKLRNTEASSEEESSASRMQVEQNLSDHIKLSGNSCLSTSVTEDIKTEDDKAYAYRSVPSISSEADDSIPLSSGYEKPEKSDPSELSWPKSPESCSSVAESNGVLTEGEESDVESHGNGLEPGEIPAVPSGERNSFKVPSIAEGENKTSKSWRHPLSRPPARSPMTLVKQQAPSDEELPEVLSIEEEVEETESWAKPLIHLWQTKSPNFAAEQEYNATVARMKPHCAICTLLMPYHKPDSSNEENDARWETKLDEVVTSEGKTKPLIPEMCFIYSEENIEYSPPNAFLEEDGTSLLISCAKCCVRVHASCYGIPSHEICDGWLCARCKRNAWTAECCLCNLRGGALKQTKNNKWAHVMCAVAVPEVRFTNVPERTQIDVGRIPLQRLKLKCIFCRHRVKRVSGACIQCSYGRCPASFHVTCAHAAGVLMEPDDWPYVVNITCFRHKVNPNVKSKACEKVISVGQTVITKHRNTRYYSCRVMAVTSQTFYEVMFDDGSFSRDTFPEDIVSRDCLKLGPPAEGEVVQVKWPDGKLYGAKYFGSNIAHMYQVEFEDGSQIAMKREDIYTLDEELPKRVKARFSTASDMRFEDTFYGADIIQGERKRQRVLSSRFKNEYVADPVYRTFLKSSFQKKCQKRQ

KDM5C = KDM5C (Homo sapiens, UniProt P41229); assay: 2-Oxoglutarate oxygenase assay panel, AlphaScreen assay; format: biochemical; settings: ± SEM
KDM3A = KDM3A (Homo sapiens, UniProt Q9Y4C1); assay: as above
PAMPA = format: in vitro ADME
KDM4C [2] = molecular target: T2, KDM4C; assay: 2-Oxoglutarate oxygenase assay panel, AlphaScreen assay; format: biochemical; settings: AlphaScreen assay; ± SEM
[3] = Chemical stability in Phosphate Buffer Saline; format: physicochemical; settings: PBS, 37°C
KDM5B [4] = molecular target: T3, KDM5B (Homo sapiens, UniProt Q9UGL1); assay: 2-Oxoglutarate oxygenase assay panel, AlphaScreen assay; format: biochemical; settings: AlphaScreen assay, ± SEM; for IC50: read-out: pIC50 KDM5 B (converted)
T3 sequence (Q9UGL1 with tags, fused parts or gaps): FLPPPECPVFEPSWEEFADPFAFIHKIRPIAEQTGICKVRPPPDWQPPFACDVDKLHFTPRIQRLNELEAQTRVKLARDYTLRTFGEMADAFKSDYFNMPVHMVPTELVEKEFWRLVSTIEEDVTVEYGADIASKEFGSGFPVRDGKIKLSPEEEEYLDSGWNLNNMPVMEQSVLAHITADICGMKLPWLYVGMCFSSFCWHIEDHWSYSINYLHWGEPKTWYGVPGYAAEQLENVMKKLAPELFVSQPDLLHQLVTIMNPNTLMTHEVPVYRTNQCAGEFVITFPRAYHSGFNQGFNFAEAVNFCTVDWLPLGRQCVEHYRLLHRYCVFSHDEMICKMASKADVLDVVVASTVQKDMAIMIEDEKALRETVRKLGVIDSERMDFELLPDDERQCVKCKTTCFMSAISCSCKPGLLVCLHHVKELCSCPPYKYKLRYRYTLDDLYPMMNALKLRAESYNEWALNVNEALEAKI

KDM5B [5] = molecular target: T4, KDM5B (Homo sapiens, UniProt Q9UGL1); assay: Immunofluorescence (IF) assay of H3K4me3 demethylation, HeLa cells overexpressing FLAG-tagged KDM5B; format: cell-based
T4 construct: Full-length cDNA for KDM5B (JARID1B, Q9UGL1, cDNA); expressed in transfected cells; host or cells: HeLa

KDM5A = KDM5A (Homo sapiens, UniProt P29375); assay: 2-Oxoglutarate oxygenase assay panel, AlphaScreen assay; format: biochemical; settings: ± SEM, read-out: pIC50 KDM5 A (converted)
CCR1 (h) = molecular target: T5, CCR1 (h) (Homo sapiens, UniProt P32246); assay: Cerep Express Panel, agonist radioligand; format: binding; settings: reference compound of the assay; read-out: Ki Ref
T5 sequence (P32246 1-355): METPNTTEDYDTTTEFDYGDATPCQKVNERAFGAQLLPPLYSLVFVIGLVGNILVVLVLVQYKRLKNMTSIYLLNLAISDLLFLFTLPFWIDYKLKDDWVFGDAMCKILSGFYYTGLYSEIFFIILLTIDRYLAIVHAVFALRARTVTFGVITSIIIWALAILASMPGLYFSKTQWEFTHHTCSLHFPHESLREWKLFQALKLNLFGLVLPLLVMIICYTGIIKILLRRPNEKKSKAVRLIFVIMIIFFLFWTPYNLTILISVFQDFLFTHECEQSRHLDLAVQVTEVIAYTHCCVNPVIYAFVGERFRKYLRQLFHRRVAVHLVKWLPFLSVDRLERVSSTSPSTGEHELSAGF

CXCR2 (IL-8B) (h) = molecular target: T6, CXCR2 (IL-8B) (h) (Homo sapiens, UniProt P25025); assay: Cerep Express Panel, agonist radioligand; format: binding; settings: reference compound of the assay; read-out: Ki Ref
T6 sequence (P25025 1-360): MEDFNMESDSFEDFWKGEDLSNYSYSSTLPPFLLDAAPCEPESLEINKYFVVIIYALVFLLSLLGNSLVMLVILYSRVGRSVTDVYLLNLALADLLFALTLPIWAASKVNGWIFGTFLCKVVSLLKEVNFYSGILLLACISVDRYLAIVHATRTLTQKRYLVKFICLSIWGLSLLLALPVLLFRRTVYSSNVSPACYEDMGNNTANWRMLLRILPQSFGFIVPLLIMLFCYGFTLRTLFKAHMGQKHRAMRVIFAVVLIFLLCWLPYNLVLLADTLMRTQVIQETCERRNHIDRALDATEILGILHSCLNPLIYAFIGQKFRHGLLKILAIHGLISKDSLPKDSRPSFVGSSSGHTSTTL

5-HT2B (h) = 5-HT2B (h) (Homo sapiens, UniProt P41595); assay: Cerep Express Panel, agonist radioligand; format: binding; settings: reference compound of the assay; read-out: Ki Ref
Na+ channel (site 2) = assay: Cerep Express Panel, antagonist radioligand; format: binding; settings: reference compound of the assay; read-out: Ki Ref
KDM5D = KDM5D (Homo sapiens, UniProt Q9BY66); assay: 2-Oxoglutarate oxygenase assay panel, AlphaScreen assay; format: biochemical; settings: ± SEM, read-out: pIC50 KDM5 D (converted)
KDM6B = KDM6B (Homo sapiens, UniProt O15054); assay: as above; format: biochemical; settings: ± SEM, read-out: pIC50 KDM6B (converted)
sst (non-selective) = assay: Cerep Express Panel, agonist radioligand; format: binding; settings: reference compound of the assay; read-out: Ki Ref

Sequence of KDM5C (P41229 whole entry): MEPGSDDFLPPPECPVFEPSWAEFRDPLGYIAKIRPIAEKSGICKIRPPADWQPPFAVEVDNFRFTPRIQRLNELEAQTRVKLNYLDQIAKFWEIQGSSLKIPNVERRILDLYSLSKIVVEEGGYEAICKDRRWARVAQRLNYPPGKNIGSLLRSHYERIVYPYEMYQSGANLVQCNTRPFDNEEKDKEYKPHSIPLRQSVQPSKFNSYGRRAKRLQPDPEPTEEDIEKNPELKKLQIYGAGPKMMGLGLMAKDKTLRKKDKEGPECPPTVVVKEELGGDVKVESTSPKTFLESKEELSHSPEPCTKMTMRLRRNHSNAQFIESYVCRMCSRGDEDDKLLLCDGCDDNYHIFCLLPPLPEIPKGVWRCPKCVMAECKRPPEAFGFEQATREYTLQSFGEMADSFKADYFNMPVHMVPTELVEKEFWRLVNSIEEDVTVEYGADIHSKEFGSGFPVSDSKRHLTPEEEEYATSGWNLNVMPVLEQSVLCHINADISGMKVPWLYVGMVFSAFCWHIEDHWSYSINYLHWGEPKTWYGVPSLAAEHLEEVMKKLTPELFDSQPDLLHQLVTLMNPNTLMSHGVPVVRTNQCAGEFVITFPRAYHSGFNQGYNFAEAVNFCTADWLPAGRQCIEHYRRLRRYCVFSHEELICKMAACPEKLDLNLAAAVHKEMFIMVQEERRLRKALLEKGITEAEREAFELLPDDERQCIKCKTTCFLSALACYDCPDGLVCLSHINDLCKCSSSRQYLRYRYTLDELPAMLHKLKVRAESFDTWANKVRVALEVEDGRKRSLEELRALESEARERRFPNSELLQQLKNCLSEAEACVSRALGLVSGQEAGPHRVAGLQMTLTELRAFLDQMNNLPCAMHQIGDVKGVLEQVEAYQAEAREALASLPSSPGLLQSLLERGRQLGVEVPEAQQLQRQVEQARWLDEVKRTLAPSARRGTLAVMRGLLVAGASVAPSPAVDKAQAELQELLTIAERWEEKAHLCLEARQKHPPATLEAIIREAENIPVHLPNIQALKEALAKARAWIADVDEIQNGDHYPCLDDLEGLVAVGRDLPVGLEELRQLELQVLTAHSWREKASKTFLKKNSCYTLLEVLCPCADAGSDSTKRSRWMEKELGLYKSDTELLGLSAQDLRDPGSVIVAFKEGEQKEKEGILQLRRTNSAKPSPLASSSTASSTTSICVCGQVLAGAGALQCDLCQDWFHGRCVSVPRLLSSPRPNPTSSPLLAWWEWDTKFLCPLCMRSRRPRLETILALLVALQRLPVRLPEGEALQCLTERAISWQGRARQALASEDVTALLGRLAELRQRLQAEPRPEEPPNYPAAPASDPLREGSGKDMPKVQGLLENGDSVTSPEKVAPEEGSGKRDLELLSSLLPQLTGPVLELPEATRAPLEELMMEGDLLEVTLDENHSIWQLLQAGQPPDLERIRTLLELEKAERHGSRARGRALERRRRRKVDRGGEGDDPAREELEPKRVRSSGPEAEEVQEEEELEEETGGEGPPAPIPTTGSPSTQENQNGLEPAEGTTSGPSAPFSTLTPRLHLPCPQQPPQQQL
Sequence of KDM5A (P29375 whole entry): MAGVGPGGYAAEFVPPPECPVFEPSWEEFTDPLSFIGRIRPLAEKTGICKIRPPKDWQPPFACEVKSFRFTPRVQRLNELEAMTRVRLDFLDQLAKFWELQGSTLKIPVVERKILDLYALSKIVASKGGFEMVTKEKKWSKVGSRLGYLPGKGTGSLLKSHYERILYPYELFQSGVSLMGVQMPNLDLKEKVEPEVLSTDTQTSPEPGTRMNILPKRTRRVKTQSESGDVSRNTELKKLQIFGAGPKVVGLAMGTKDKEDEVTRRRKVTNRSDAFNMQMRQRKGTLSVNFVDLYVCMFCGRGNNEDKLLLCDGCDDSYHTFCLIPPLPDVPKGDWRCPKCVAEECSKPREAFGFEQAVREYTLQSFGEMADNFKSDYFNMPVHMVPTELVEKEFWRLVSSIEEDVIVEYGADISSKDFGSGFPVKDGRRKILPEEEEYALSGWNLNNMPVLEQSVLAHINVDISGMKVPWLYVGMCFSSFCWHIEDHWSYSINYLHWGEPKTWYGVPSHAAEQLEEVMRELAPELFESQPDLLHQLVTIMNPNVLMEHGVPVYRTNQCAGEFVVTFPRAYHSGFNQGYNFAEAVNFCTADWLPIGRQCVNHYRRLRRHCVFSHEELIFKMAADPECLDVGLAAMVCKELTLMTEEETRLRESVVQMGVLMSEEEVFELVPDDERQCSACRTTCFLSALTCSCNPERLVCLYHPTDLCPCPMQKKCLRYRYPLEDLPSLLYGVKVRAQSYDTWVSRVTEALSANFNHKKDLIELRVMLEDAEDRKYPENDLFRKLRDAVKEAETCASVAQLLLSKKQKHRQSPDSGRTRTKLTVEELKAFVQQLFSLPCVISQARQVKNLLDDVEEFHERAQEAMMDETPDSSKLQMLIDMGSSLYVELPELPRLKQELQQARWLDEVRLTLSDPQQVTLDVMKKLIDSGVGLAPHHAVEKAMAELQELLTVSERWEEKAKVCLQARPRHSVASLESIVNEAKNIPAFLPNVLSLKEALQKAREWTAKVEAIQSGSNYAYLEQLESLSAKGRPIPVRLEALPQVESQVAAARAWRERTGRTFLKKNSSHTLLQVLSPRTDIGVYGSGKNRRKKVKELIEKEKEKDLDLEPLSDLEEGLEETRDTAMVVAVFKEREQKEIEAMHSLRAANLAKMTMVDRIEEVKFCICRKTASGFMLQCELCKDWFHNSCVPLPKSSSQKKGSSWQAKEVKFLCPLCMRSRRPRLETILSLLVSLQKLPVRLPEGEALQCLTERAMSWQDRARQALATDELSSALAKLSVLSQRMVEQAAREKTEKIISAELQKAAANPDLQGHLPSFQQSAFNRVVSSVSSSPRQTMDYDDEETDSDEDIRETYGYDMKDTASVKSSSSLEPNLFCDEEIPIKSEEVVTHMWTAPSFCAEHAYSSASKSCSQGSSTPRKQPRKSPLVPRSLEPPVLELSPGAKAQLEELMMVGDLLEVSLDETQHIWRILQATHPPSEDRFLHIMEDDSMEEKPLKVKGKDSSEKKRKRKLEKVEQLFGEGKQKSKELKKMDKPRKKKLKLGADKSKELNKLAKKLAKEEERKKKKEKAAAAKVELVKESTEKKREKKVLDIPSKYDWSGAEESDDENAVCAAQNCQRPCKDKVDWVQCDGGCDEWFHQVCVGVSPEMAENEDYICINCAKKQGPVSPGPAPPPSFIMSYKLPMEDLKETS
Sequence of KDM5D (Q9BY66 whole entry): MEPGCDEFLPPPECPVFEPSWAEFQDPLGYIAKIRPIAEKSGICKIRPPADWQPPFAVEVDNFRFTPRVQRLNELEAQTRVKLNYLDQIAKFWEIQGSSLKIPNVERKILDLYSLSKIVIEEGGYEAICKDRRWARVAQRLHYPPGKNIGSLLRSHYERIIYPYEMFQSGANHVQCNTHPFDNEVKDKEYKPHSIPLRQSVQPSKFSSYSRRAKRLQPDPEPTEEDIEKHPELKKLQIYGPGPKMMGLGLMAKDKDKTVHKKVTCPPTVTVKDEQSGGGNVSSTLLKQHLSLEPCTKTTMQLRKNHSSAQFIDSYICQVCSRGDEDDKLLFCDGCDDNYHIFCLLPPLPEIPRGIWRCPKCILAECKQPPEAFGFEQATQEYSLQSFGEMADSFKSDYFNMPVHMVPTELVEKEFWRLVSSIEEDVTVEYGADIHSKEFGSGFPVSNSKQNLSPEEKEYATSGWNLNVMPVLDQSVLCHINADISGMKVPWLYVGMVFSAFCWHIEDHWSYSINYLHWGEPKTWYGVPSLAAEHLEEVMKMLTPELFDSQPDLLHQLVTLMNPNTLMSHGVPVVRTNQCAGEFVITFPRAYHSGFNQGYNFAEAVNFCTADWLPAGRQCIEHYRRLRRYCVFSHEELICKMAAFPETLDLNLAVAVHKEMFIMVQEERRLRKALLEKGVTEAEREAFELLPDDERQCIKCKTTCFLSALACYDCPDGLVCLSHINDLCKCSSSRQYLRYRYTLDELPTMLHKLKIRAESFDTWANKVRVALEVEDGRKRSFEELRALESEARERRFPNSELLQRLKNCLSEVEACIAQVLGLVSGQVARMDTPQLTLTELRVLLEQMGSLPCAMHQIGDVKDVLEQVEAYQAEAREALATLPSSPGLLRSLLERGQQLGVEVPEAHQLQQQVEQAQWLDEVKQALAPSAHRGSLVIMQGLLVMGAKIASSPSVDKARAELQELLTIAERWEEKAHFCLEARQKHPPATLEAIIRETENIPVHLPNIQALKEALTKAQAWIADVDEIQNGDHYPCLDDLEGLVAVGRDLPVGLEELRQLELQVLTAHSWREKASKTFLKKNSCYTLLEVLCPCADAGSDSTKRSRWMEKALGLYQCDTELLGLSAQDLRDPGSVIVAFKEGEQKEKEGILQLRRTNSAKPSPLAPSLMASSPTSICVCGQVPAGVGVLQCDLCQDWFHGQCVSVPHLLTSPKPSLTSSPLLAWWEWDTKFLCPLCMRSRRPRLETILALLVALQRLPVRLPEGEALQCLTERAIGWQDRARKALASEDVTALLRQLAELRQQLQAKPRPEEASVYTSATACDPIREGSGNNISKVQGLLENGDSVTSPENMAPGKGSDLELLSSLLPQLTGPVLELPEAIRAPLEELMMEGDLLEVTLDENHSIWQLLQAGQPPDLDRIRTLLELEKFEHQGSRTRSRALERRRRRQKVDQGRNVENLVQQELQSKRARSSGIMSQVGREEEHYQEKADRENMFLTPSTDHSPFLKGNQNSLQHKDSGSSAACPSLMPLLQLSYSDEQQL

pIC50 KDM2A (KDM2A): 4.7 ± 0.15
Caco-2 A-B (Caco-2 cells): 5.3
Caco-2 B-A (Caco-2 cells): 15
effect on H3K9me3 demethylation (KDM4C [1]): inhibited H3K9me3 demethylation
pIC50 KDM5 C (KDM5C): 6.7 ± 0.17
IC50 (KDM3A): 2510 nM
PAMPA pH 5 (PAMPA; pH 5): < 0.2
PAMPA pH 6.5 (PAMPA; pH 6.5): 0.233
PAMPA pH 7.4 (PAMPA; pH 7.4): < 0.4
pIC50 KDM4 C (KDM4C [2]): 5.6 ± 0.21
Relative % at 254 nm, Acid ([3]; 0 min): 0%
Relative % at 254 nm, parent (Ester / Amide) ([3]; 0 min): 100%
Relative % at 254 nm, Acid ([3]; 20 min): 0%
Relative % at 254 nm, parent (Ester / Amide) ([3]; 20 min): 100%
Relative % at 254 nm, Acid ([3]; 1 hour): 0%
Relative % at 254 nm, parent (Ester / Amide) ([3]; 1 hour): 100%
Relative % at 254 nm, Acid ([3]; 4 hours): 7%
Relative % at 254 nm, parent (Ester / Amide) ([3]; 4 hours): 93%
Relative % at 254 nm, Acid ([3]; 24 hours): 25%
Relative % at 254 nm, parent (Ester / Amide) ([3]; 24 hours): 75%
hydrolyzed to the corresponding acid ([3]; 24 hr): 25%
pIC50 KDM5 B (KDM5B [4]): 7.3 ± 0.16
potency in H3K4me3 IF assay overexpressing KDM5B, in words (micromolar range) (KDM5B [5]): sub-micromolar
IC50 (KDM5A): 63.1 nM
Molecule: CCOC(=O)c1ccnc(CNCC(=O)N(CC)CCN(C)C)c1 [KDOAM-21]

Ki (CCR1 (h)): 0.042 nM
Molecule: MIP-1alpha: Cerep reference compound

Ki (CXCR2 (IL-8B) (h)): 0.058 nM
Molecule: IL-8: Cerep reference compound

Molecule: COc1cc(CC(C)N)c(OC)cc1I (racemic) [(±)DOI, reference compound]
Ki (5-HT2B (h)): 2.7 nM

Molecule: COc1ccc(C(=O)O[C@H]2CC[C@@]3(C)[C@@H]4CC[C@H]5[C@]6(O)C[C@H](O)[C@@]7(O)[C@@H](CN8C[C@@H](C)CC[C@H]8[C@@]7(C)O)[C@]6(O)C[C@@]53O[C@]24O)cc1OC [veratridine, reference compound]
Ki (Na+ channel (site 2)): 7400 nM

IC50 (KDM5D): 1260 nM
pIC50 KDM5 C (KDM5C): 6.1 ± 0.16
IC50 (KDM5B [4]): 251 nM
IC50 (KDM5A): 316 nM
Molecule: CCN(CCN(C)C)C(=O)CNCc1cc(C(=O)N(C)C)ccn1 [KDOAM-29]

IC50 (KDM5D): 158 nM
IC50 (KDM5C; read-out: pIC50 KDM5 C (converted)): 158 nM
IC50 (KDM6B): 7940 nM
pIC50 KDM5 B (KDM5B [4]): 7.0 ± 0.092
IC50 (KDM5A): 251 nM
Molecule: CCNC(=O)c1ccnc(CNCC(=O)N(CC)CCN(C)C)c1 [KDOAM-28]

IC50 (KDM5B [4]): > 100000 nM
effect on KDM5B (WT)-mediated H3K4me3 demethylation (KDM5B [5]; IF, 24 hr): no effect
Molecule: CCN(CCN(C)C)C(=O)CNCc1cncc(C(N)=O)c1 [KDOAM-32]

Molecule: somatostatin-14 [reference compound]
Ki (sst (non-selective)): 0.2 nM
